Reference: patent US9403835B2, “Tetraaza-cyclopenta[a]indenyl and their use as positive allosteric modulators” (Merck Patent GmbH, priority 2011, dated 2016)

molecular target: T1, muscarinic M1 receptor (Homo sapiens, UniProt P11229); test: M1 PAM Assay (IP-One HTRF, IP1 in M1-CHO cells with EC20 of acetylcholine); type: cell-based; conditions: 1 hour at room temperature, IP1 readout
T1 construct: expressed in transfected cells; host or cells: CHO (M1-CHO cells)
T1 sequence (P11229 1-460): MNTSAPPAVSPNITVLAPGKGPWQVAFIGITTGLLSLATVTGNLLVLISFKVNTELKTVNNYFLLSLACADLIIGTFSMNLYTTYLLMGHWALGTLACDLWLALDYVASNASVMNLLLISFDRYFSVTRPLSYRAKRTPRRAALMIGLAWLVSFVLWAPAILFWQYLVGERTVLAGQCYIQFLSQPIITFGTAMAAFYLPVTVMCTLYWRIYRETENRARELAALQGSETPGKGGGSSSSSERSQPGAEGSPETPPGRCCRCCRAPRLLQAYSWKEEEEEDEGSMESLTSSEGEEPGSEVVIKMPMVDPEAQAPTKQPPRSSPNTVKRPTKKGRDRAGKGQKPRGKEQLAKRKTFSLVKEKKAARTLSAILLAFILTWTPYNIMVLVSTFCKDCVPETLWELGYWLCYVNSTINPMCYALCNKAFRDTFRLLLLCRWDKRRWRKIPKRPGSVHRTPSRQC
Protocol: M1-CHO cells are plated in culture medium (HAM's F12, P/S, 10% FCS) on the day before the experiment with 10 000 cells/well in a 384 well plate (3750 Corning White 384 w plate with lid). On the day of experiment, cells are washed with PBS and IPone buffer is added (glucose 5.5 mM, NaCl 146 mM, MgCl2 0.5 mM, HEPES 10 mM, LiCl 50 mM, CaCl2 1 mM, KCl 4.2 mM). Then diluted compounds (1% DMSO final concentration) are added together with EC20 of acetylcholine and incubated with the cells for 1 hour at room temperature. The intracellular concentration of IP1 is then measured using the IP-One HTRF assay from Cisbio.

Cc1nc2c3c(nn2c(C)c1Cl)CN(C(=O)c1ccc(F)cc1OCCn1cccn1)C3 [Example 18, (6-chloro-5,7-dimethyl-1H,3H-2,4,7a,8-tetraaza-cyclopenta[a]inden-2-yl)-[4-fluoro-2-(2-pyrazol-1-yl-ethoxy)-phenyl]-methanone] and CCOc1cc(F)ccc1C(=O)N1Cc2nn3c(C)c(Cl)c(C)nc3c2C1 [Example 5, (6-chloro-5,7-dimethyl-1H,3H-2,4,7a,8-tetraaza-cyclopenta[a]inden-2-yl)-(2-ethoxy-4-fluoro-phenyl)-methanone] fall in the same range of EC50: 200 to 1000 nM for the first, 200 to 1000 nM for the second.

Cc1cnc2c3c(nn2c1C)CN(C(=O)c1ccccc1OCCN(C)C)C3 [Example 38, [2-(2-dimethylamino-ethoxy)-phenyl]-(6,7-dimethyl-1H,3H-2,4,7a,8-tetraaza-cyclopenta[a]inden-2-yl)-methanone] and Cc1cn2nc3c(c2nc1C)CN(C(=O)c1ccccc1OCCN(C)C)C3 [Example 32, [2-(2-dimethylamino-ethoxy)-phenyl]-(5,6-dimethyl-1H,3H-2,4,7a,8-tetraaza-cyclopenta[a]inden-2-yl)-methanone] fall in the same range of EC50: 1000 to 2000 nM for the first, 1000 to 2000 nM for the second.

Compared with Cc1nc2c3c(nn2c(C)c1C)CN(C(=O)c1ccccc1OC1CCN(C)CC1)C3 [Example 4, [2-(1-methyl-piperidin-4-yloxy)-phenyl]-(5,6,7-trimethyl-1H,3H-2,4,7a,8-tetraaza-cyclopenta[a]inden-2-yl)-methanone], Cc1nc2c3c(nn2c(C)c1Cl)CN(C(=O)c1ccccc1OC1CCN(C)CC1)C3 [Example 1, (6-chloro-5,7-dimethyl-1H,3H-2,4,7a,8-tetraaza-cyclopenta[a]inden-2-yl)-[2-(1-methyl-piperidin-4-yloxy)-phenyl]-methanone] is lower in EC50: 200 to 1000 nM for the first, < 200 nM for the second.

CSc1ccccc1C(=O)N1Cc2nn3c(C)c(C)c(C)nc3c2C1 [Example 25, (2-methylsulfanyl-phenyl)-(5,6,7-trimethyl-1H,3H-2,4,7a,8-tetraaza-cyclopenta[a]inden-2-yl)-methanone] and Cc1nc2c3c(nn2c(C)c1C)CN(C(=O)c1ccccc1OC(C)C)C3 [Example 26, (2-isopropoxy-phenyl)-(5,6,7-trimethyl-1H,3H-2,4,7a,8-tetraaza-cyclopenta[a]inden-2-yl)-methanone] fall in the same range of EC50: 200 to 1000 nM for the first, 200 to 1000 nM for the second.

Cc1nc2c3c(nn2c(C)c1C)CN(C(=O)c1ccccc1OCCN1CCCCC1)C3 [Example 20, [2-(2-piperidin-1-yl-ethoxy)-phenyl]-(5,6,7-trimethyl-1H,3H-2,4,7a,8-tetraaza-cyclopenta[a]inden-2-yl)-methanone] and CCCCOc1ccccc1C(=O)N1Cc2nn3c(C)c(C)c(C)nc3c2C1 [Example 21, (2-butoxy-phenyl)-(5,6,7-trimethyl-1H,3H-2,4,7a,8-tetraaza-cyclopenta[a]inden-2-yl)-methanone] fall in the same range of EC50: 200 to 1000 nM for the first, 200 to 1000 nM for the second.

Compared with Cc1nc2c3c(nn2c(C)c1C)CN(C(=O)c1ccccc1N1CCCN(C)CC1)C3 [Example 19, [2-(4-methyl-[1,4]diazepan-1-yl)-phenyl]-(5,6,7-trimethyl-1H,3H-2,4,7a,8-tetraaza-cyclopenta[a]inden-2-yl)-methanone], Cc1cnc2c3c(nn2c1C)CN(C(=O)c1ccccc1N1CCCN(C)CC1)C3 [Example 41, (6,7-dimethyl-1H,3H-2,4,7a,8-tetraaza-cyclopenta[a]inden-2-yl)-[2-(4-methyl-[1,4]diazepan-1-yl)-phenyl]-methanone] is higher in EC50: 200 to 1000 nM for the first, 1000 to 2000 nM for the second. The first is the more potent here.

Compared with CCOc1ccccc1C(=O)N1Cc2nn3c(C)c(CC)c(C)nc3c2C1 [Example 27, (2-ethoxy-phenyl)-(6-ethyl-5,7-dimethyl-1H,3H-2,4,7a,8-tetraaza-cyclopenta[a]inden-2-yl)-methanone], CCOc1ccccc1C(=O)N1Cc2nn3c(C)c(C)c(C)nc3c2C1 [Example 12, (2-ethoxy-phenyl)-(5,6,7-trimethyl-1H,3H-2,4,7a,8-tetraaza-cyclopenta[a]inden-2-yl)-methanone] is lower in EC50: 1000 to 2000 nM for the first, 200 to 1000 nM for the second. The second is the more potent here.

First: Cc1nc2c3c(nn2c(C)c1C)CN(C(=O)c1ccccc1OCCn1cccn1)C3 [Example 24, [2-(2-pyrazol-1-yl-ethoxy)-phenyl]-(5,6,7-trimethyl-1H,3H-2,4,7a,8-tetraaza-cyclopenta[a]inden-2-yl)-methanone]
Second: Cc1nc2c3c(nn2c(C)c1C)CN(C(=O)c1ccccc1-n1cccn1)C3 [Example 39, (2-pyrazol-1-yl-phenyl)-(5,6,7-trimethyl-1H,3H-2,4,7a,8-tetraaza-cyclopenta[a]inden-2-yl)-methanone]
The EC50 of the first is lower: 200 to 1000 nM for the first, 1000 to 2000 nM for the second.

First: CCOc1ccc(F)cc1C(=O)N1Cc2nn3c(C)c(C)c(C)nc3c2C1 [Example 13, (2-ethoxy-5-fluoro-phenyl)-(5,6,7-trimethyl-1H,3H-2,4,7a,8-tetraaza-cyclopenta[a]inden-2-yl)-methanone]
Second: CCOc1ccc(Cl)cc1C(=O)N1Cc2nn3c(C)c(C)c(C)nc3c2C1 [Example 34, (5-chloro-2-ethoxy-phenyl)-(5,6,7-trimethyl-1H,3H-2,4,7a,8-tetraaza-cyclopenta[a]inden-2-yl)-methanone]
The EC50 of the first is lower: 200 to 1000 nM for the first, 1000 to 2000 nM for the second. The first is the more potent here.

First: Cc1nc2c3c(nn2c(C)c1C)CN(C(=O)c1ccccc1OCc1ccccc1)C3 [Example 29, (2-benzyloxy-phenyl)-(5,6,7-trimethyl-1H,3H-2,4,7a,8-tetraaza-cyclopenta[a]inden-2-yl)-methanone]
Second: CC(=O)Oc1ccccc1C(=O)N1Cc2nn3c(C)c(C)c(C)nc3c2C1 [Example 23, acetic acid 2-(5,6,7-trimethyl-1H,3H-2,4,7a,8-tetraaza-cyclopenta[a]indene-2-carbonyl)-phenyl ester]
The EC50 of the first is higher: 1000 to 2000 nM for the first, 200 to 1000 nM for the second. The second is the more potent here.

Cc1cnc2c3c(nn2c1)CN(C(=O)c1ccccc1OCCN(C)C)C3 [Example 47, [2-(2-dimethylamino-ethoxy)-phenyl]-(6-methyl-1H,3H-2,4,7a,8-tetraaza-cyclopenta[a]inden-2-yl)-methanone] and CCOc1ccccc1C(=O)N1Cc2nn3cc(Cl)cnc3c2C1 [Example 46, (6-chloro-1H,3H-2,4,7a,8-tetraaza-cyclopenta[a]inden-2-yl)-(2-ethoxy-phenyl)-methanone] fall in the same range of EC50: 1000 to 2000 nM for the first, 1000 to 2000 nM for the second.

Cc1nc2c3c(nn2c(C)c1Cl)CN(C(=O)c1ccccc1N1CCCC1)C3 [Example 7, (6-chloro-5,7-dimethyl-1H,3H-2,4,7a,8-tetraaza-cyclopenta[a]inden-2-yl)-(2-pyrrolidin-1-yl-phenyl)-methanone] and Cc1nc2c3c(nn2c(C)c1Cl)CN(C(=O)c1ccccc1OC(C)C)C3 [Example 9, (6-chloro-5,7-dimethyl-1H,3H-2,4,7a,8-tetraaza-cyclopenta[a]inden-2-yl)-(2-isopropoxy-phenyl)-methanone] fall in the same range of EC50: 200 to 1000 nM for the first, 200 to 1000 nM for the second.

CCOc1ccccc1C(=O)N1Cc2nn3cc(Br)cnc3c2C1 [Example 48, (6-bromo-1H,3H-2,4,7a,8-tetraaza-cyclopenta[a]inden-2-yl)-(2-ethoxy-phenyl)-methanone] and CCOc1ccccc1C(=O)N1Cc2nn3cc(C)c(C)nc3c2C1 [Example 31, (5,6-Dimethyl-1H,3H-2,4,7a,8-tetraaza-cyclopenta[a]inden-2-yl)-(2-ethoxy-phenyl)-methanone] fall in the same range of EC50: 1000 to 2000 nM for the first, 1000 to 2000 nM for the second.

CCNc1ccccc1C(=O)N1Cc2nn3c(C)c(C)c(C)nc3c2C1 [Example 37, (2-ethylamino-phenyl)-(5,6,7-trimethyl-1H,3H-2,4,7a,8-tetraaza-cyclopenta[a]inden-2-yl)-methanone] and COC(=O)c1ccccc1C(=O)N1Cc2nn3c(C)c(C)c(C)nc3c2C1 [Example 44, 2-(5,6,7-trimethyl-1H,3H-2,4,7a,8-tetraaza-cyclopenta[a]indene-2-carbonyl)-benzoic acid methyl ester] fall in the same range of EC50: 1000 to 2000 nM for the first, 1000 to 2000 nM for the second.

Compared with Cc1nc2c3c(nn2c(C)c1C)CN(C(=O)c1ccccc1OC(F)(F)F)C3 [Example 17, (2-trifluoromethoxy-phenyl)-(5,6,7-trimethyl-1H,3H-2,4,7a,8-tetraaza-cyclopenta[a]inden-2-yl)-methanone], Cc1nc2c3c(nn2c(C)c1C)CN(C(=O)c1ccccc1C(F)(F)F)C3 [Example 43, (2-trifluoromethyl-phenyl)-(5,6,7-trimethyl-1H,3H-2,4,7a,8-tetraaza-cyclopenta[a]inden-2-yl)-methanone] is higher in EC50: 200 to 1000 nM for the first, 1000 to 2000 nM for the second.

Cc1nc2c3c(nn2c(C)c1Cl)CN(C(=O)c1ccccc1OC1CCNCC1)C3 [Example 3, (6-chloro-5,7-dimethyl-1H,3H-2,4,7a,8-tetraaza-cyclopenta[a]inden-2-yl)-[2-(piperidin-4-yloxy)-phenyl]-methanone] and Cc1nc2c3c(nn2c(C)c1Cl)CN(C(=O)c1ccccc1OC(F)(F)C(F)F)C3 [Example 2, (6-chloro-5,7-dimethyl-1H,3H-2,4,7a,8-tetraaza-cyclopenta[a]inden-2-yl)-[2-(1,1,2,2-tetrafluoro-ethoxy)-phenyl]-methanone] cannot be ordered by EC50: < 200 nM for the first, < 200 nM for the second.

Cc1cn2nc3c(c2nc1C)CN(C(=O)c1ccccc1N1CCCN(C)CC1)C3 [Example 33, (5,6-dimethyl-1H,3H-2,4,7a,8-tetraaza-cyclopenta[a]inden-2-yl)-[2-(4-methyl-[1,4]diazepan-1-yl)-phenyl]-methanone] showed an EC50 of 1000 to 2000 nM.
